One compound from BindingDB's records for doi:10.1016/j.bmcl.2012.12.095 (Astrazeneca, 2013) can be followed below.

A short description of this assay: Antagonist activity at CCR1 receptor in human THP1 cells assessed as inhibition of MIP-1alpha-induced chemotaxis after 2 hrs by fluorescence assay.

Turning to `CC(=O)Nc1ccc(O)cc1OC[C@@H](N)CN1CCC2(CC1)Cc1ccccc1O2`, the IC50 (in general, the point on the concentration scale where inhibition reaches its midpoint) came to 68 nM.
